Assay results as given in PubChem BioAssay (NCI).
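Exposure lasted 48 hours, with cells grown in 96-well plates and compounds tested at five concentrations. The concentration for full growth arrest is given as TGI.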

test system: ACHN renal; assay: NCI anticancer screen, dose series, 48 h

Row | Compound | TGI [µM]
1 | CC(C)C(NC(=O)C(Cc1ccccc1)NC(=O)[C@H]1CCC[C@H]1NC(=O)C(Cc1ccc(OC(C)(C)C)cc1)NC(=O)OC(C)(C)C)C(N)=O (stereo partly specified) | > 100
2 | Cc1ccc(NC(=O)CC(=O)n2nc(C)c(N=Nc3cccc(C)c3)c2C)cc1 | > 100
3 | N#C/C(=C\c1ccc2[nH]ccc2c1)C(=O)c1ccc(O)c(O)c1 | > 100
4 | O=[N+]([O-])/C(C(Cl)=C(Cl)Cl)=C(/Nc1ccccc1)Sc1ccccc1 | 33.1
5 | Cc1ccc2c(c1C)C(=O)/C(=C/c1cccc(C)c1C(=O)O)C2 | > 100
6 | O=C1N(c2ccccc2)C(=S)/C(=C/c2ccc(Cl)cc2)N1c1ccc(Cl)cc1 | 49.1
7 | O=C1C=C(N2CCN(CCOCCO)CC2)C(=O)c2c(O)ccc(O)c21 | 20.1
8 | CC/C(N)=N\NC(=O)OC(C)(C)C | > 100
9 | CC(=O)NC1C(OCc2ccccc2)OC(CO)C(O)C1OCC(=O)N[C@@H](C)C(=O)N[C@H](CCC(=O)NCCCNc1ccc([N+](=O)[O-])c2[nH]c3ccccc3c(=O)c12)C(N)=O (stereo partly specified) | > 100
10 | CN(C)CCCNC(=O)c1cn2c(ccc3sc4ccccc4c(=O)c32)n1 | 25.8
11 | O=P(O)(O)CN1CCNCCN(CP(=O)(O)O)CC1 | > 100
12 | c1cc2c(cc1C1=NCCN1)c1cc(C3=NCCN3)ccc1n2CC1CCCCC1 | > 100
13 | C=C1CC2[C@H](C)C(=O)CCC2(C)C2=C1C1CCC(C(C)CCC(=C)C(C)C(=O)O)C1(C)CC2=O (stereo partly specified) | > 100
14 | CC(C)NC(=O)OCc1c(COC(=O)NC(C)C)c(-c2cc[n+](COC(=O)C3CCCCC3)cc2)n2c1CCC2 | > 100
15 | O=[N+]([O-])C(C=C(n1nnc2ccccc21)n1nnc2ccccc21)=C(n1nnc2ccccc21)n1nnc2ccccc21 | > 100

test system: T-47D breast; assay: NCI anticancer screen, dose series, 48 h

Row | Compound | TGI [µM]
16 | CCNC(=S)N/N=C(\C)c1cccc(C)n1 | > 100
17 | CN1CCN([C@H]2C[C@H]3[C@@H]4CC=C5C[C@@H](O)CC[C@]5(C)[C@H]4CC[C@]3(C)[C@H]2O)CC1 | > 77.8
18 | CC1C2(C)OCC(C#N)(C(=N)O2)C1(C#N)C#N (stereo unspecified) | 30.2
19 | C=CC[C@H](N=C(SC)SC)C(=O)N1C(=O)N(C)[C@@H](C)[C@H]1c1ccccc1 | > 100
20 | CC(=O)c1sc2[n+](c1C)C(=O)/C(=C\c1ccccc1Cl)S2 | 36.2
21 | CCCCCCCCCCCCOP(=O)(O)OP(=O)(O)OCC1OC(n2cc(C)c(=O)[nH]c2=O)CC1O (stereo unspecified) | > 100
22 | O=C1c2cc([N+](=O)[O-])sc2C(=O)c2c([N+](=O)[O-])csc21 | 4.09
23 | C[C@H](CCC(=O)NCC(=O)O)[C@H]1CC[C@H]2[C@@H]3[C@H](O)C[C@@H]4C[C@H](O)CC[C@]4(C)[C@H]3CC[C@]12C | > 100
24 | CCOc1cc2c(cc1O)C(N)C[C@@H]1[C@@H]2CC[C@]2(C)[C@@H](O)CC[C@@H]12 (stereo partly specified) | > 100
25 | CC(C)C(NC(=O)C(Cc1ccccc1)NC(=O)[C@H]1CCC[C@H]1NC(=O)C(Cc1ccc(OC(C)(C)C)cc1)NC(=O)OC(C)(C)C)C(N)=O (stereo partly specified) | 46.9
26 | Cc1ccc(NC(=O)CC(=O)n2nc(C)c(N=Nc3cccc(C)c3)c2C)cc1 | > 100
27 | N#C/C(=C\c1ccc2[nH]ccc2c1)C(=O)c1ccc(O)c(O)c1 | > 100
28 | O=[N+]([O-])/C(C(Cl)=C(Cl)Cl)=C(/Nc1ccccc1)Sc1ccccc1 | 59.8
29 | Cc1ccc2c(c1C)C(=O)/C(=C/c1cccc(C)c1C(=O)O)C2 | > 100
30 | O=C1N(c2ccccc2)C(=S)/C(=C/c2ccc(Cl)cc2)N1c1ccc(Cl)cc1 | > 100
31 | O=C1C=C(N2CCN(CCOCCO)CC2)C(=O)c2c(O)ccc(O)c21 | 18.4
32 | CC/C(N)=N\NC(=O)OC(C)(C)C | > 100
33 | CC(=O)NC1C(OCc2ccccc2)OC(CO)C(O)C1OCC(=O)N[C@@H](C)C(=O)N[C@H](CCC(=O)NCCCNc1ccc([N+](=O)[O-])c2[nH]c3ccccc3c(=O)c12)C(N)=O (stereo partly specified) | > 100
34 | CN(C)CCCNC(=O)c1cn2c(ccc3sc4ccccc4c(=O)c32)n1 | 45.3
35 | O=P(O)(O)CN1CCNCCN(CP(=O)(O)O)CC1 | > 100
36 | c1cc2c(cc1C1=NCCN1)c1cc(C3=NCCN3)ccc1n2CC1CCCCC1 | 84.7
37 | C=C1CC2[C@H](C)C(=O)CCC2(C)C2=C1C1CCC(C(C)CCC(=C)C(C)C(=O)O)C1(C)CC2=O (stereo partly specified) | > 100
38 | CC(C)NC(=O)OCc1c(COC(=O)NC(C)C)c(-c2cc[n+](COC(=O)C3CCCCC3)cc2)n2c1CCC2 | > 100
39 | O=[N+]([O-])C(C=C(n1nnc2ccccc21)n1nnc2ccccc21)=C(n1nnc2ccccc21)n1nnc2ccccc21 | > 100

test system: 786-0 renal; assay: NCI anticancer screen, dose series, 48 h

Row | Compound | TGI [µM]
40 | CCNC(=S)N/N=C(\C)c1cccc(C)n1 | > 100
41 | CN1CCN([C@H]2C[C@H]3[C@@H]4CC=C5C[C@@H](O)CC[C@]5(C)[C@H]4CC[C@]3(C)[C@H]2O)CC1 | 32.1
42 | CC1C2(C)OCC(C#N)(C(=N)O2)C1(C#N)C#N (stereo unspecified) | 55.3
43 | C=CC[C@H](N=C(SC)SC)C(=O)N1C(=O)N(C)[C@@H](C)[C@H]1c1ccccc1 | > 100
44 | CC(=O)c1sc2[n+](c1C)C(=O)/C(=C\c1ccccc1Cl)S2 | 38.2
45 | CCCCCCCCCCCCOP(=O)(O)OP(=O)(O)OCC1OC(n2cc(C)c(=O)[nH]c2=O)CC1O (stereo unspecified) | > 100
46 | O=C1c2cc([N+](=O)[O-])sc2C(=O)c2c([N+](=O)[O-])csc21 | 1.66
47 | C[C@H](CCC(=O)NCC(=O)O)[C@H]1CC[C@H]2[C@@H]3[C@H](O)C[C@@H]4C[C@H](O)CC[C@]4(C)[C@H]3CC[C@]12C | > 100
48 | CCOc1cc2c(cc1O)C(N)C[C@@H]1[C@@H]2CC[C@]2(C)[C@@H](O)CC[C@@H]12 (stereo partly specified) | > 100
49 | CC(C)C(NC(=O)C(Cc1ccccc1)NC(=O)[C@H]1CCC[C@H]1NC(=O)C(Cc1ccc(OC(C)(C)C)cc1)NC(=O)OC(C)(C)C)C(N)=O (stereo partly specified) | > 100
50 | Cc1ccc(NC(=O)CC(=O)n2nc(C)c(N=Nc3cccc(C)c3)c2C)cc1 | > 100
51 | N#C/C(=C\c1ccc2[nH]ccc2c1)C(=O)c1ccc(O)c(O)c1 | > 100
52 | O=[N+]([O-])/C(C(Cl)=C(Cl)Cl)=C(/Nc1ccccc1)Sc1ccccc1 | 46.5
53 | Cc1ccc2c(c1C)C(=O)/C(=C/c1cccc(C)c1C(=O)O)C2 | > 100
54 | O=C1N(c2ccccc2)C(=S)/C(=C/c2ccc(Cl)cc2)N1c1ccc(Cl)cc1 | 64.2
55 | O=C1C=C(N2CCN(CCOCCO)CC2)C(=O)c2c(O)ccc(O)c21 | 21.7
56 | CC/C(N)=N\NC(=O)OC(C)(C)C | > 100
